These results are taken from US7030104B2, “Topical oestroprogestational compositions with a systemic effect” (Laboratoire Theramex, priority 2000, dated 2006).

The nature of data set [1]: In vitro percutaneous passage on static diffusion cells (Franz cells), radiolabelled active ingredients. In kind it is in vitro ADME, human. The note with it: 24 hours.
Procedure: Percutaneous absorption is studied in vitro on static diffusion cells, called Franz cells™. The percutaneous passage of the active ingredients is evaluated by measuring the radioactivity using labelled molecules (carbon 14, tritium). The overall quantity of active ingredient absorbed is measured, at different times, in the receiving compartment.
A cutaneous biopsy is horizontally maintained between the two parts of the cell thus delimiting on both sides of the sample, two compartments: one of them epidermic, constituted by a glass cylinder, of a defined area (1.76 cm^2), placed on the upper surface of the skin; the other dermic (or receptor), on the underside of the biopsy, comprises a fixed volume reservoir with a side nozzle. The two compartments are kept in place through the intermediary of a clamp. […]
The preparations to be studied are applied in weighed quantities, using a spatula over all of the epidermal area circumscribed by the glass cone. […] The samples removed are treated with Pico-fluorine 40™ scintillation liquid and the activity measured using a liquid scintillation counter. […]
The percutaneous passage of the active ingredients is evaluated at the time of each sampling by measuring the cumulative quantity (μg) of active ingredient as a function of time.
For data set [2] the following is noted: known pharmacokinetics; Patent FR 2.776.191; cited from earlier work.

Turning to `C[C@]12CC[C@@H]3c4ccc(O)cc4CC[C@H]3[C@@H]1CC[C@@H]2O` [estradiol, 17beta estradiol], the “change of percutaneous penetration of estradiol caused by presence of nomegestrol acetate” value in data set [1] (gel G29-299 (NAc + E2) versus TX11323 (E2 only)) is given as −51%.
Consider `CC(=O)O[C@]1(C(C)=O)CC[C@H]2[C@@H]3C=C(C)C4=CC(=O)CC[C@@H]4[C@H]3CC[C@@]21C` [nomegestrol acetate], for which the “plasmatic concentration of nomegestrol acetate for clinical effectiveness (endometrial effect through bleedings)” value in data set [2] was at least 0.7 ng/mL. In data set [1] (gel G29-299 (NAc + E2) versus G29-287 (NAc only)), the “change of percutaneous passage of nomegestrol acetate caused by presence of estradiol” value was “+39%”.
